Results on eight compounds are retold here after patent US11426347B2, “Food for improving intraintestinal environment” (AJINOMOTO CO., INC., priority 2017, dated 2022).

Holding throughout (type): cell-based
Assay [1] relates to bifidobacteria. The assay is described as follows: Experimental Example 1-1: addition of amino acid and fructo-oligosaccharide to human feces suspension, anaerobic culture, quantitative PCR of bifidobacteria. Conditions: amino acid added together with 0.5% FOS, compared with FOS alone, human feces suspension in PBS, 37° C., 4 days. The method, then:
The PBS solutions for the Examples and Comparative Examples shown in Table 1-1 were prepared and used as media for a feces culture. PBS alone was used as a control. Fructo-oligosaccharide (FOS) manufactured by Wako Pure Chemical Industries, Ltd. (#064-02385) was used.
(§1) Thereafter, 10 ml of each solution was dispensed into glass vials and the glass vials were sterilized by autoclave, made anaerobic, and sealed with a butyl rubber stopper. The feces suspension was prepared by collecting about 10 g of feces from 3 healthy individuals (one man and two women) in their 20 s to 40 s and suspending same in 80 ml of anaerobic PBS. The feces suspension was added to each vial by 0.5 ml, placed in an incubator at 37° C., and anaerobically cultured for 4 days with tumble blending once per day. After completion of the culture, an intestinal bacterial pellet was obtained from the entire amount of the culture medium by centrifugation (8,000×g, 5 min). DNA was extracted from this pellet using ISOFECAL for BeadsBeat (manufactured by NIPPON GENE CO., LTD.), and quantitative PCR was performed using GeneAce SYBR qPCR Mix α (manufactured by NIPPON GENE CO., LTD.). Quantitative PCR was performed under the conditions of 45 cycles of 95° C. for 30 sec and 60° C. for 60 sec after 95° C. for 10 min. Primers for quantitative PCR used for detection bifidobacteria are as follows.
(§2) Using the results obtained by quantitative PCR, the relative amount when the control is 1 was calculated, and the results were normalized with z-score.

Assay [2] deals with bifidobacteria. The assay is described as follows: Experimental Example 1-2: addition test of amino acid and fructo-oligosaccharide to human feces suspension. Conditions: amino acid added together with 0.5% FOS, compared with FOS alone; human feces suspension in PBS, 4 days; quantitative PCR. The method, then: as §1
The PBS solutions for the Examples and Comparative Examples shown in Table 1-2 were prepared and used as media for a feces culture. […]
as §2

The subject of assay [3] is bifidobacteria. In words: Experimental Example 2: addition test of amino acid and galacto-oligosaccharide to human feces suspension. Conditions: amino acid added together with 0.5% GOS, compared with GOS alone; human feces suspension in PBS, 4 days; quantitative PCR. The method, then: as §1
The PBS solutions for the Examples and Comparative Examples shown in Table 2 were prepared and used as media for feces culture. […]
as §2

Take `NC(=O)CC[C@H](N)C(=O)O` [Gln, L-glutamine]: the proliferation of bifidobacteria result in assay [1] is on record as “greater proliferation of bifidobacteria than that with FOS alone”. As to `C[C@H](N)C(=O)O` [Ala, L-alanine], the proliferation of bifidobacteria result in assay [1] was “greater proliferation of bifidobacteria than that with FOS alone”.

In the case of `N[C@@H](Cc1c[nH]cn1)C(=O)O` [His, L-histidine], in assay [2], the proliferation of bifidobacteria result was “greater proliferation of bifidobacteria than that with FOS alone”.

In the case of `CC[C@H](C)[C@H](N)C(=O)O` [Ile, L-isoleucine], the proliferation of bifidobacteria entry in assay [1] is “greater proliferation of bifidobacteria than that with FOS alone”.

`CC(C)[C@H](N)C(=O)O` [Val, L-valine]: the proliferation of bifidobacteria entry in assay [1] is “greater proliferation of bifidobacteria than that with FOS alone”. For the compound `O=C(O)[C@@H]1CCCN1` [Pro, L-proline], the proliferation of bifidobacteria entry in assay [2] is “greater proliferation of bifidobacteria than that with FOS alone”.

As to `NCCCC[C@H](N)C(=O)O` [Lys, L-lysine], the figures for the proliferation of bifidobacteria result in assay [1] and in assay [3] were “greater proliferation of bifidobacteria than that with FOS alone” and “greater proliferation of bifidobacteria than that with GOS alone”, respectively. In the case of `N[C@@H](CCC(=O)O)C(=O)O` [Glu, L-glutamic acid], the proliferation of bifidobacteria result in assay [1] is “greater proliferation of bifidobacteria than that with FOS alone”; in assay [3] it was “greater proliferation of bifidobacteria than that with GOS alone”.
